Values of other authors as cited in patent publication EP4135668B1, “SOLID ORAL DOSAGE FORM COMPRISING POMALIDOMIDE” (Tecnimede, Sociedade Técnico-Medicinal, SA, priority 2020, dated 2021).

Settings: low aqueous solubility and low permeability active compound

For `Nc1cccc2c1C(=O)N(C1CCC(=O)NC1=O)C2=O` (stereo not shown) [Pomalidomide, 4-amino-2-(2,6-dioxopiperidine-3-yl)isoindoline-l,3-dione], the “Biopharmaceutics Classification System (BCS) class” value is given as “Class IV”.
